Measured values taken from patent EP0263493A2, “Pharmaceutic preparation to improve the gastro-intestinal resorption” (priority 1986, dated 1988).

How the values were obtained:
[1] = Antibiotic plasma level and bioavailability after oral or enteral (duodenal) administration, rats (bioassay with E. coli 1346)
Description: Eine erste in vivo-Testanordnung war wie folgt: Als Versuchsobjekte wurden Menschen und Ratten eingesetzt, die ein β-Lactam-Antibiotikum sowohl oral als auch enteral erhielten. Für die orale Verabreichung wurden die Antibiotika in destilliertem Wasser oder in einem Träger wie Witepsol H15 allein oder zusammen mit CAPMUL MCM 90 und einem Resorptionsverstärker wie Natriumchenodeoxycholat (NaCDC) oder Chenodeoxycholsäure oder Natriumdeoxycholat (NaDC) oder Deoxycholsäure verwendet. In de gleichen Weise wurden die Antibiotika für die enterale Verabreichung hergerichtet und duodenal verabreicht.
Plasmaspiegel der Antibiotika wurden im Blut aus der Armvene des Menschen und der Schwanzvene der Ratte nach Zentrifugieren bestimmt. Die Antibiotika-enthaltenden Blutproben von Ratten wurden durch Bioassay auf einer Nunc-Platte analysiert; E. coli 1346, über Nacht auf einer Antibiotika--Agar Nr. 1-Kultur kultiviert wurde mit Kochsalzlösung gewaschen, wobei eine Suspension mit 90% Durchlässigkeit auf einem Bausch und Lomb-Spectronic 20 (650 nm) hergestellt wurde. 16 ml der erhaltenen Suspension wurden zu 600 ml geschmolzenem Antibiotika-Agar Nr. 1 gegeben, 200 ml des beimpften Agars wurden auf jede Nunc-Platte (243 × 243 ×18 mm) gegeben. Die Agarplatten wurden ausgestanzt, so dass […] Proben in jede Höhlung gegeben werden konnten.
Bei den vorstehend beschriebenen Versuchen wurden Lösungen des Wirkstoffs in destilliertem Wasser bei Raumtemperatur hergestellt und sofern ein Resorptionsverstärker anwesend war, dieser in feinverteilter Form langsam eingeführt, wobei eine feinteilige Suspension erhalten wurde.

Ratten = experiment: Insulin effect on blood glucose level after injection into the duodenum of fasted, anaesthetised rats; assay type: in vivo; settings: presence of NaCDC in the insulin preparations, summary of Tabelle 2
Description: In dieser Versuchsanordnung wurden Ratten über Nacht fasten gelassen, anästhesiert und der Wirkstoff durch Injektion in das Duodenum verabreicht. Blutproben aus dem Schwanz wurden zu verschiedenen Zeiten entnommen und auf chemisch vorbehandeltem Papier (Chemistrip bg. Boehringer Mannheim Diagnostics) mittels eines Accucheck bg Blutglukosemonitors (Biodynamics, Baltimore) ausgewertet.

[2] = given with Natriumchenodeoxycholat instead of Wasser, summary of Tabelle 1

CC1(C)S[C@@H]2[C@H](/N=C/N3CCCCCC3)C(=O)N2[C@H]1C(=O)O [Amdinocillin]
Spiegel des Antibiotikums ([1]; in vivo): signifikant höhere Spiegel

NC(=O)OC[C@@H]1[C@H](NC(=O)/C(=N\OCC(=O)O)c2csc(N)n2)C(=O)N1S(=O)(=O)O [Carumonam]
Spiegel des Antibiotikums [1, 2]: signifikant höhere Spiegel

Cn1nnnc1SCC1=C(C(=O)O)N2C(=O)[C@@H](NC(=O)[C@H](O)c3ccccc3)[C@H]2SC1 [Cefamandol]
Spiegel des Antibiotikums [1, 2]: signifikant höhere Spiegel

CO/N=C(\C(=O)N[C@@H]1C(=O)N2C(C(=O)O)=C(CSc3nc(=O)c(=O)[nH]n3C)CS[C@H]12)c1csc(N)n1 [Ceftriaxon]
Resorption von Ceftriaxon ([1]; in vivo): synergistisch verstärkt
Spiegel des Antibiotikums ([1]; in vivo): signifikant höhere Spiegel
Spiegel von Ceftriaxon ([1]; in vivo): erhöht

CO[C@@]1(NC(=O)C(C(=O)O)c2ccc(O)cc2)C(=O)N2C(C(=O)O)=C(CSc3nnnn3C)CO[C@@H]21 (stereo partly drawn) [Moxalactam]
Spiegel des Antibiotikums ([1]; in vivo): signifikant höhere Spiegel

C[C@H](CCC(=O)O)[C@H]1CC[C@H]2[C@@H]3[C@H](O)C[C@@H]4C[C@H](O)CC[C@]4(C)[C@H]3CC[C@]12C [NaCDC, Natriumchenodeoxycholat]
Blutzucker (Ratten): signifikanten zeitweisen Verminderung des Blutzuckers

C[C@@H](O)[C@H]1C(=O)N2C(C(=O)O)=C(SCCN)C[C@H]12 [Thienamycin]
Spiegel des Antibiotikums ([1]; in vivo): signifikant höhere Spiegel
